Type in all cases: cell-based
The subject of test [1] is MDA-MB231 (M231, human breast cancer cell line). Description: MTT assay IC50 (48 h), MDA-MB231. Conditions: MDA-MB-231, M231, 48 hours. As for the experimental part: (§1) In another assay format, a test compound is assayed for its cytotoxicity and/or cytostatic effect on certain cancer cell types, using endpoint assay methods. Cells in the NCI cancer cell panel may be used. Cells after a pre-incubation for certain length of time (for example, 8 hrs or 24 hrs) are incubated with a test compound at serially-diluted concentrations (for example, five 10-fold dilutions) for 24 hrs and/or 48 hrs, and/or other specific length of time. The dose dependent cytotoxicity and/or cytostatic effects of test compounds can then be tested and evaluated using the 3-(4,5-dimethylthiazol-2-yl)-2,5-diphenyltetrazolium bromide (MTT) assay method, as described by, for example, Boyd (In Principle of Practice of Oncology, Devita, J. T., Hellman, S. and Rosenberg S. A. (Eds), 1989, Vol, 3, PPO Update, No. 10).
(§2) The anticancer potency of DBTS and its derivatives were tested in 8 different types of human cancer cell lines using the RT-CES system and MTT assay. The 8 cancer cell lines were HT1080 (the human fibrosarcoma cell line), H460 (human non small cell lung cancer cell line), OVCAR4 (the human ovarian cancer cell line), MCF7 (human breast cancer cell line) MDA-MB231 (M231, the human breast cancer cell line) A2780 (the human […] cancer cell line) Jurkat (the human T cell leukemia cell line). The test DBTS derivatives include ACEA100107, ACEA100108, ACEA100109, ACEA100111, ACEA100115, ACEA100116, ACEA100117, ACEA100118, ACEA100119, and ACEA100120.
(§3) For the MTT assay, the cells were seeded into the regular 96× well plates at the cell seeding density ranging from 5000 cells/well to 15,000 cells/well. The cells were incubated at 5% CO2 and 37° C. for overnight. The derivatives were serially diluted and added to the cells. The treatment was terminated after 48 hours of incubation by adding MTT staining reagent. After 4 hours, the staining was stopped by the stop buffer and then the calorimetric measurement was carried out on a microtiter plate reader at dual wave length, 650 nm and 550 nm.

Test [2] deals with MCF7 (human breast cancer cell line). Put plainly: MTT assay IC50 (48 h), MCF7. As to conditions: MCF-7, 48 hours. As for the experimental part:
as §1, §2, §3
Background: Formazan colour is commonly taken as a measure of viable cells.

The next test relates to A2780 cells. Put plainly: RT-CES system cell proliferation/cytotoxicity IC50, A2780. As to conditions: Homo sapiens, time point of maximum inhibition. The source says: (§4) The RT-CES system comprises three components, an electronic sensor analyzer, a device station and 16× or 96× microtiter plate devices. Microelectrode sensor array was fabricated on glass slides with lithographical microfabrication methods and the electrode-containing slides are assembled to plastic trays to form electrode-containing wells. Each 16× (or 96×) microtiter plate device used in RT-CES system comprises up to 16 (or 96) such electrode-containing wells. The device station receives the 16× or 96× microtiter plate devices and is capable of electronically switching any one of the wells to the sensor analyzer for impedance measurement. In operation, the devices with cells cultured in the wells are placed into a device station that is located inside an incubator. Electrical cables connect the device station to the sensor analyzer. Under the RT-CES software control, the sensor analyzer can automatically select wells to be measured and continuously conduct impedance measurements. The impedance data from the analyzer is transferred to a computer, analyzed and processed by the integrated software.
(§5) To quantify cell status based on the measured cell-electrode impedance, a parameter termed Cell Index is derived, according to
(§6) [formula] where Rb(f) and Rcell(f) are the frequency dependent electrode resistances (a component of impedance) without cells or with cell present, respectively. N is the number of the frequency points at which the impedance is measured. Thus, Cell Index is a quantitative measure of the status of the cells in an electrode-containing well. Under the same physiological conditions, more cells attached on to the electrodes leads to larger Rcell(f) value, leading to a larger value for Cell Index. Furthermore, for the same number of cells present in the well, a change in the cell status such as morphology will lead to a change in the Cell Index. For example, an increase in cell adhesion or cell spreading leads to larger cell-electrode contact area which will lead to an increase in Rcell(f) and thus a larger value for Cell Index. The Cell Index may also be calculated using a formula different from the one described here. Other methods for calculating the Cell Index based on impedance measurement can be found in PCT application number PCT/US04/37696, fined on Nov. 12, 2004, PCT application number PCT/US05/04481, filed on Feb. 9, 2005, U.S. patent application Ser. No. 10/987,732, filed on Nov. 12, 2004, and U.S. patent application Ser. No. 11/055,639, filed on Feb. 9, 2005.
A2780 cells (human […]) were seeded into wells of 16× or 96× microtiter plate devices (electronic plates, i.e., the plates comprise microelectrode sensor arrays in the wells of the plate) with an initial seeding density of 20,000 cells per well and were pre-incubated in incubator under standard cell culture conditions for about 16.4 hrs. Dibenzyl trisulfide solution in DMSO was added into wells following the incubation period. The cell status was monitored prior to and after the compound addition using RT-CES system. The cell indexes of different wells were between 2.2 and 3.7 just before the compound addition. […] The cell index was normalized against the cell index values at a time point just after compound addition (about 17.5 hrs after cell seeding).
For the assay performed on the RT-CES system, the cells were seeded into the 16× or 96× microtiter plate devices (electronic plates, i.e., the plates comprise microelectrode sensor arrays in the wells of the plate) at the seeding density ranging from 5000 cells/well to 15,000 cells/well. The cells were incubated at 5% CO2 and 37° C. for overnight till the cell indices reached the growth phase where the cell index was between 0.8 and 1.2. Serially diluted compounds were then added to the cells followed by dynamic monitoring of the effect of the compounds on the cell proliferation and cytotoxicity. […]

The test system of test [3] is MDA-MB231 (M231, human breast cancer cell line). Description: RT-CES system cell proliferation/cytotoxicity IC50, MDA-MB231. Conditions: MDA-MB-231, time point of maximum inhibition.
Description: as §4, §5, §6
Dibenzyl trisulfide solution in DMSO was added into wells following the incubation period. The cell status was monitored prior to and after the compound addition using RT-CES system. The cell indexes of different wells were between 0.65 and 0.82 just before the compound addition. […] The cell index was normalized against the cell index values at a time point just after compound addition (about 19.6 hrs after cell seeding).
For the assay performed on the RT-CES system, the cells were seeded into the 16× or 96× microtiter plate devices (electronic plates, i.e., the plates comprise microelectrode sensor arrays in the wells of the plate) at the seeding density ranging from 5000 cells/well to 15,000 cells/well. The cells were incubated at 5% CO2 and 37° C. for overnight till the cell indices reached the growth phase where the cell index was between 0.8 and 1.2. Serially diluted compounds were then added to the cells followed by dynamic monitoring of the effect of the compounds on the cell proliferation and cytotoxicity. The time-dependent IC50 values for each derivative were calculated based the dose responses of cell index value at different time points after compound treatment.
The anticancer potency of a DBTS derivative, ACEA100108 was tested in 7 cancer cell lines on the […]. The cell lines were HT1080, H460, OVCAR4, MCF7, MDA-MB231, HepG2, and A2780. […]

Data on six compounds can be found in patent publication US8334316B2, “Substituted organosulfur compounds and methods of using thereof” (ACEA Biosciences, Inc., priority 2004, dated 2012).

Broadly, the IC50 is the concentration that inhibits the measured activity by half. Lower therefore signals higher potency.

For the compound `Fc1ccc(CSSSCc2ccc(F)cc2)cc1` [ACEA100108, Di(p-fluorobenzyl)trisulfide], the IC50 in test [1] is 4400 nM; in test [2] it was > 50000 nM; with A2780 cells, 0.5 µM; in test [3], 3.05 µM.
The matching figures for `Clc1ccccc1CSSSCc1ccccc1Cl` [ACEA100115, Di(o-chlorobenzyl)trisulfide]: 3100 nM, > 50000 nM, 0.75 µM and 1.06 µM.
In the case of `Cc1cccc(CSSSCc2cccc(C)c2)c1` [ACEA100116, di(m-methylbenzyl)trisulfide], the IC50 was 650 nM in test [1], > 50000 nM in test [2], 0.75 µM in the test on A2780 cells and 1.06 µM in test [3].
In the case of `FC(F)(F)c1cccc(CSSSCc2cccc(C(F)(F)F)c2)c1` [ACEA100117, Di(m-trifluoromethylbenzyl)trisulfide], the IC50 in test [1] is 14900 nM; in test [2], > 50000 nM; in the test on A2780 cells it was 11.8 µM; in test [3], 41 µM.
In the same order, the values of `Clc1ccc(CSSSCc2ccc(Cl)cc2)cc1` [ACEA100118, Di(p-chlorobenzyl)trisulfide] are 1200 nM, > 50000 nM, 0.7 µM and 2.3 µM.
Take `c1ccc(CSSSCc2ccccc2)cc1` [DBTS, Dibenzyl trisulfide]: the IC50 in test [1] was 2400 nM; in test [2] it was > 50000 nM; in the test with A2780 cells, 0.4 µM; in test [3], 2.4 µM.
